# In patent US11266655B2, “Methods and compositions for treating urea cycle disorders” (Camp4 Therapeutics Corporation, priority 2019, dated 2022):
# Like-named read-outs stand apart in the source and are kept apart here.
# Assays:
# OTC [1] = assay: OTC expression modulated by compounds, OTC/GeoMean of housekeeping genes, DMSO = 1 (Table 3A); assay type: cell-based, human; settings: 10 uM final concentration
# CPS1 [2] = assay: JAK inhibitors at 0.3 and 3 μM in primary human hepatocytes, CPS1 mRNA fold change; assay type: cell-based; settings: fold change vs DMSO
# Procedure: (§1) Additional small molecules that inhibit JAK1, JAK2, JAK3, or a combination of the JAK proteins were tested in primary human hepatocytes as described in Example 2. JAK inhibitors were tested in triplicate at 0.3 μM and 3 μM. The results are shown as the fold change (mRNA FC) in the mRNA levels of OTC and CPS1 genes after treatment compared to an untreated control (DMSO) and the standard deviation (SD).
# OTC [3] = assay: JAK inhibitors at 0.3 and 3 μM in primary human hepatocytes, OTC mRNA fold change; assay type: cell-based; settings: fold change vs DMSO
# Procedure: as §1
# urea cycle genes = assay: RNA-seq of primary human hepatocytes, compounds that modulate multiple urea cycle-related genes; assay type: cell-based
# ASS1 = assay: RNA-seq of compound-treated primary human hepatocytes, ASS1 expression; assay type: cell-based
# CPS1 [4] = assay: RNA-seq of compound-treated primary human hepatocytes, CPS1 expression; assay type: cell-based; settings: for increase in CPS1 gene expression (Tables 19, 20, FIG. 11, 12): Example 11, relative mRNA vs DMSO
# OTC [5] = assay: RNA-seq of compound-treated primary human hepatocytes, OTC expression; assay type: cell-based; settings: for Relative OTC level vs Untreated (±Standard Deviation): triplicate (Table 14); for increase in OTC gene expression (Table 14, FIG. 6): Example 11, relative mRNA vs DMSO
# ARG1 = assay: RNA-seq of compound-treated primary human hepatocytes, ARG1 expression; assay type: cell-based; settings: for increase in ARG1 gene expression (Tables 17, 18, FIG. 9, 10): Example 11, relative mRNA vs DMSO
# SLC25A15 = assay: RNA-seq of compound-treated primary human hepatocytes, SLC25A15 expression; assay type: cell-based; settings: for Relative SLC25A15 level vs Untreated (±Standard Deviation): primary human hepatocytes, triplicate (Table 24, FIG. 16A-B)
# ASL = assay: RNA-seq of compound-treated primary human hepatocytes, ASL expression; assay type: cell-based; settings: for Relative ASL level vs Untreated (±Standard Deviation): triplicate (Table 25, FIG. 17); for increase in ASL gene expression (Table 25, FIG. 17): Example 11, relative mRNA vs DMSO
# NAGS = assay type: cell-based, human; settings: primary human hepatocytes, RNA-seq (Table 6)
# [6] = primary human hepatocytes, RNA-seq
# [7] = primary human hepatocytes, RNA-seq, urea cycle-related genes significantly increased (Table 10)
# [8] = 10 uM, primary human hepatocytes, triplicate (Table 15, FIG. 8)
# [9] = Example 11, relative mRNA vs DMSO
# [10] = 3 uM, primary human hepatocytes, triplicate (Table 20, FIG. 12)
# [11] = 10 uM, primary human hepatocytes, triplicate (Table 20, FIG. 12)
# [12] = 0.3 uM, primary human hepatocytes
# [13] = 1 uM, primary human hepatocytes
# [14] = 3 uM, primary human hepatocytes
# [15] = 10 uM, primary human hepatocytes
# [16] = 10 μM, primary human hepatocytes, triplicate (Table 17, FIG. 9)
# [17] = 10 uM, primary human hepatocytes, triplicate (Table 18, FIG. 10)
smiles,measurement,setting,value
Cc1cc(Nc2nc(N[C@@H](C)c3ncc(F)cn3)ncc2Cl)[nH]n1 [AZD1480],Max Value (OTC/GeoMean of HKs; DMSO = 1),OTC [1],1.46
same,CPS1 mRNA FC,CPS1 [2]; 0.3 uM,1.1
same,CPS1 mRNA FC,CPS1 [2]; 3 uM,1.77
same,OTC mRNA FC,OTC [3]; 0.3 uM,1.63
same,OTC mRNA FC,OTC [3]; 3 uM,2.3
Cc1cc(-c2nc(-c3ccc(OC(F)(F)F)cc3)no2)nn1Cc1ccnc(N2CCN(C3CC3)CC2)c1 [BAY 87-2243],number of urea cycle genes whose expression was significantly up-regulated,urea cycle genes; [6],three
same,Up-regulated Genes,urea cycle genes; [7],"CPS1, ASL, ARG1"
same,Relative ASS1 level vs Untreated (±Standard Deviation),"ASS1; 0.3 μM, primary human hepatocytes, triplicate (Table 15, FIG. 7)",2.79 ± 0.22
same,Relative ASS1 level vs Untreated (±Standard Deviation),"ASS1; 0.3 uM, primary human hepatocytes, triplicate (Table 15, FIG. 8)",2.11 ± 0.33
same,Relative ASS1 level vs Untreated (±Standard Deviation),"ASS1; 1 μM, primary human hepatocytes, triplicate (Table 15, FIG. 7)",3.10 ± 0.47
same,Relative ASS1 level vs Untreated (±Standard Deviation),"ASS1; 01 uM, primary human hepatocytes, triplicate (Table 15, FIG. 8)",2.61 ± 0.57
same,Relative ASS1 level vs Untreated (±Standard Deviation),"ASS1; 3 μM, primary human hepatocytes, triplicate (Table 15, FIG. 7)",2.38 ± 0.01
same,Relative ASS1 level vs Untreated (±Standard Deviation),"ASS1; 03 uM, primary human hepatocytes, triplicate (Table 15, FIG. 8)",2.87 ± 1.80
same,Relative ASS1 level vs Untreated (±Standard Deviation),"ASS1; 10 μM, primary human hepatocytes, triplicate (Table 15, FIG. 7)",2.99 ± 0.36
same,Relative ASS1 level vs Untreated (±Standard Deviation),ASS1; [8],2.86 ± 1.48
same,"increase in ASS1 gene expression (Tables 15, 16, FIG. 7, 8)",ASS1; [9],greatest increase
same,Relative CPS1 level vs Untreated (±Standard Deviation),"CPS1 [4]; 0.3 uM, primary human hepatocytes, triplicate (Table 20, FIG. 12)",3.32 ± 0.53
same,Relative CPS1 level vs Untreated (±Standard Deviation),"CPS1 [4]; 1 uM, primary human hepatocytes, triplicate (Table 20, FIG. 12)",5.11 ± 1.08
same,Relative CPS1 level vs Untreated (±Standard Deviation),"CPS1 [4]; 3 μM, primary human hepatocytes, triplicate (Table 19, FIG. 11)",1.41 ± 0.06
same,Relative CPS1 level vs Untreated (±Standard Deviation),CPS1 [4]; [10],5.48 ± 3.12
same,Relative CPS1 level vs Untreated (±Standard Deviation),CPS1 [4]; [11],5.69 ± 2.90
same,"increase in CPS1 gene expression (Tables 19, 20, FIG. 11, 12)",CPS1 [4],greatest increase
same,"CPS1 expression, Fold change (Log 2) vs untreated",CPS1 [4]; [6],1.81 Log 2
same,Relative OTC level vs Untreated (±Standard Deviation),OTC [5]; [12],3.33 ± 0.60
same,Relative OTC level vs Untreated (±Standard Deviation),OTC [5]; [13],5.61 ± 3.28
same,Relative OTC level vs Untreated (±Standard Deviation),OTC [5]; [14],7.03 ± 3.84
same,Relative OTC level vs Untreated (±Standard Deviation),OTC [5]; [15],6.18 ± 1.58
same,"increase in OTC gene expression (Table 14, FIG. 6)",OTC [5],greatest increase
same,Relative ARGI level vs Untreated (±Standard Deviation),"ARG1; 0.3 μM, primary human hepatocytes, triplicate (Table 17, FIG. 9)",1.36 ± 0.43
same,Relative ARGI level vs Untreated (±Standard Deviation),"ARG1; 1 μM, primary human hepatocytes, triplicate (Table 17, FIG. 9)",1.98 ± 0.29
same,Relative ARGI level vs Untreated (±Standard Deviation),"ARG1; 3 μM, primary human hepatocytes, triplicate (Table 17, FIG. 9)",2.06 ± 0.19
same,Relative ARGI level vs Untreated (±Standard Deviation),ARG1; [16],2.03 ± 0.28
same,Relative ARGI level vs Untreated (±Standard Deviation),ARG1; [17],5.64 ± 3.44
same,"increase in ARG1 gene expression (Tables 17, 18, FIG. 9, 10)",ARG1,greatest increase
same,"Fold change (Log 2) vs untreated, ARG1 expression","ARG1; primary human hepatocytes, RNA-seq (Table 7)",1.09 Log 2
same,Relative SLC25A15 level vs Untreated (±Standard Deviation),SLC25A15; 0.3 μM,2.85 ± 0.23
same,Relative SLC25A15 level vs Untreated (±Standard Deviation),SLC25A15; 1 μM,2.40 ± 0.22
same,Relative SLC25A15 level vs Untreated (±Standard Deviation),SLC25A15; 3 μM,2.89 ± 0.37
same,Relative SLC25A15 level vs Untreated (±Standard Deviation),SLC25A15; 10 μM,2.70 ± 0.19
same,Increase in SLC25A15 gene expression (qualitative),SLC25A15; [9],greatest increase
same,Relative ASL level vs Untreated (±Standard Deviation),ASL; [12],3.02 ± 0.25
same,Relative ASL level vs Untreated (±Standard Deviation),ASL; [13],7.50 ± 1.10
same,Relative ASL level vs Untreated (±Standard Deviation),ASL; [14],11.42 ± 6.31
same,Relative ASL level vs Untreated (±Standard Deviation),ASL; [15],12.28 ± 4.98
same,"increase in ASL gene expression (Table 25, FIG. 17)",ASL,greatest increase
same,"ASL expression, Fold change (Log 2) vs untreated",ASL; [6],0.58 Log 2
CNC[C@H](O)c1ccc(O)c(O)c1 [Epinephrine],Up-regulated Genes,urea cycle genes,"CPS1, ASS1, ASL, ARG1, SLC25A15"
same,number of urea cycle genes whose expression was significantly up-regulated,urea cycle genes,five
same,"Fold change (Log 2) vs untreated, ASS1 expression",ASS1,1.08 Log 2
same,"CPS1 expression, Fold change (Log 2) vs untreated",CPS1 [4],4.85 Log 2
same,"Fold change (Log 2) vs untreated, ARG1 expression",ARG1,2.28 Log 2
same,"Fold change (Log 2) vs untreated, SLC25A15 expression",SLC25A15,1.14 Log 2
same,"ASL expression, Fold change (Log 2) vs untreated",ASL,0.6 Log 2
"COc1cccc2c1C(=O)c1c(O)c3c(c(O)c1C2=O)C[C@@](O)(/C(CO)=N/NC(=O)CCCCCN1C(=O)C=CC1=O)C[C@@H]3O[C@H]1C[C@H](N)[C@H](O)[C@H](C)O1 [INNO-206 (aldoxorubicin), aldoxorubicin]",Max Value (OTC/GeoMean of HKs; DMSO = 1),OTC [1],2.36
same,number of urea cycle genes whose expression was significantly up-regulated,urea cycle genes; [6],three
same,Up-regulated Genes,urea cycle genes; [7],"NAGS, ASS1, OTC"
same,"Fold change (Log 2) vs untreated, ASS1 expression","ASS1; primary human hepatocytes, RNA-seq (Table 4)",0.58 Log 2
same,"OTC expression, Fold change (Log 2) vs untreated",OTC [5]; [6],0.87 Log 2
same,"Fold change (Log 2) vs untreated, NAGS expression",NAGS,1.63 Log 2
CN(c1ncccc1CNc1nc(Nc2ccc3c(c2)CC(=O)N3)ncc1C(F)(F)F)S(C)(=O)=O [PF-00562271],Max Value (OTC/GeoMean of HKs; DMSO = 1),OTC [1],3.3
same,Relative ASS1 level vs Untreated (±Standard Deviation),ASS1; [8],2.30 ± 0.41
same,Relative CPS1 level vs Untreated (±Standard Deviation),CPS1 [4]; [10],2.33 ± 0.58
same,Relative CPS1 level vs Untreated (±Standard Deviation),CPS1 [4]; [11],4.70 ± 0.49
same,"increase in CPS1 gene expression (Tables 19, 20, FIG. 11, 12)",CPS1 [4],greatest increase
same,Relative OTC level vs Untreated (±Standard Deviation),OTC [5]; [14],3.27 ± 0.59
same,Relative OTC level vs Untreated (±Standard Deviation),OTC [5]; [15],7.05 ± 1.14
same,"increase in OTC gene expression (Table 14, FIG. 6)",OTC [5],greatest increase
same,Relative ARGI level vs Untreated (±Standard Deviation),ARG1; [16],1.32 ± 0.33
same,Relative ARGI level vs Untreated (±Standard Deviation),ARG1; [17],2.53 ± 0.36
same,"increase in ARG1 gene expression (Tables 17, 18, FIG. 9, 10)",ARG1,greatest increase
same,Relative ASL level vs Untreated (±Standard Deviation),ASL; [14],2.09 ± 0.67
same,Relative ASL level vs Untreated (±Standard Deviation),ASL; [15],4.92 ± 1.05
same,"increase in ASL gene expression (Table 25, FIG. 17)",ASL,greatest increase
